Assay results from patent publication US7741124B2, “Detection procedures for fibrinogen and/or fibrinogen derivatives” (priority 2003, dated 2010).
Like-named read-outs stand apart in the source and are kept apart here. Each block holds one compound with its values, some of them ahead of it.

How the values were obtained:
Format in all cases: biochemical
[1] = test system: fibrinogen; assay: FIATA (vancomycin reactivity) of chloramine-T oxidized / EDTA-supplemented plasma; details: EDTA at concentrations of 50-100 mM
Method: To 25 μl plasma 50 μl PBS are added and the absorbance (405 nm) is determined (base value). Then 50 μl 4.4 mM vancomycin in PBS are added. The absorbance at 405 nm is determined after 2 min, if the reaction is performed at room temperature (23° C.). If the reaction is performed at 37° C., the second value is determined after 1 min. A microtiterplate reader (Milenia, DPC, Los Angeles, USA) is used. The increase in absorption (ΔA) is determined and the results are standardized against a pooled plasma of known, preferably of 100% of norm, fibrinogen-concentration, and against 0.9% NaCl (zero-value of turbidity) (Table 2).
(§1) 25 μl P-Pool or P-Pool supplemented with 8.6 mM (3.2 g/l) EDTA were incubated with 25 μl 0-89 mM chloramine-T® in PBS for 60 min at RT. Then the FIATA and the FIFTA were performed. For the FIATA, 25 μl PBS were added and the absorbance at 405 nm was determined (base value). 50 μl 4.4 mM vancomycin in PBS were added and after 1 min (RT) the absorbance at 405 nm was determined again (Table 1). […] 100% control=P-Pool without oxidant.
(§2) 25 μl P-Pool was incubated with 25 μl PBS or with 25 μl 2 mM CT in PBS. After 60 min RT, 25 μl 0-172 mM EDTA in PBS was added. After 5 min RT the FIATA and the FIFTA were performed as indicated in 2.7.

[2] = target: T1, fibrinogen (Homo sapiens, UniProt P02671+P02675+P02679); assay: FIFTA of chloramine-T oxidized / EDTA-supplemented plasma
T1 construct: pooled patient plasma (P-Pool, n=32 single plasmas); from tissue; host or cells: pooled citrated patient plasma (P-Pool, Fbgen-Pool-Plasma)
T1 sequence (P02671 20-644 isoform P02671-2 limits assumed): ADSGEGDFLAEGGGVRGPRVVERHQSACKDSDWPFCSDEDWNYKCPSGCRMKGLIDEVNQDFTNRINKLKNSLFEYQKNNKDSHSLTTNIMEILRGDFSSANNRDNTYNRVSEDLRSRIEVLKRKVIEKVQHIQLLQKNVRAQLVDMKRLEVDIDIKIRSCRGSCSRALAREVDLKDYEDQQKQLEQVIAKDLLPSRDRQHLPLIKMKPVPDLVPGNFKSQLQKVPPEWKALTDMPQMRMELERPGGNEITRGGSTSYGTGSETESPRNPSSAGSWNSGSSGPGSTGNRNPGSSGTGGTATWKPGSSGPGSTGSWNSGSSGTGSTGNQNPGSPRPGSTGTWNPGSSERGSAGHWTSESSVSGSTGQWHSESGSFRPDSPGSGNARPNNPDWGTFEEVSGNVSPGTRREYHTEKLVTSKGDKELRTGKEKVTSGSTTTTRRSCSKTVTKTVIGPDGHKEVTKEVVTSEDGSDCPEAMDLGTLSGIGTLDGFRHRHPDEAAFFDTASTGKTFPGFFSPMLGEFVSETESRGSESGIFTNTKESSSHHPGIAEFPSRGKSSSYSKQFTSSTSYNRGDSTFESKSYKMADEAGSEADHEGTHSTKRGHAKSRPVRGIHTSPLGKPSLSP
T1 sequence (P02675 31-491): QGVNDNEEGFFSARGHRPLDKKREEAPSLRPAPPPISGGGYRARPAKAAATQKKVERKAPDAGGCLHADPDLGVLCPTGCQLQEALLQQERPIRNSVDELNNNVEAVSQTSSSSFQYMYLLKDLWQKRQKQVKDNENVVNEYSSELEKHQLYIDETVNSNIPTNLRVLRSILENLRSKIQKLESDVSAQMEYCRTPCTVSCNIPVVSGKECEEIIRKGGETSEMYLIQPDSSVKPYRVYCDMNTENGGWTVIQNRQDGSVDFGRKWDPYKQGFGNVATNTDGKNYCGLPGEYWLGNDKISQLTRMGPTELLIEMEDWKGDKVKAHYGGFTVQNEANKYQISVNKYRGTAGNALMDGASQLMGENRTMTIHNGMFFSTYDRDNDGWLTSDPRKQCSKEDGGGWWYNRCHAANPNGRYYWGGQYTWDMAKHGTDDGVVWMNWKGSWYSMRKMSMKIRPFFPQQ
T1 sequence (P02679 27-437 isoform P02679-2 limits assumed): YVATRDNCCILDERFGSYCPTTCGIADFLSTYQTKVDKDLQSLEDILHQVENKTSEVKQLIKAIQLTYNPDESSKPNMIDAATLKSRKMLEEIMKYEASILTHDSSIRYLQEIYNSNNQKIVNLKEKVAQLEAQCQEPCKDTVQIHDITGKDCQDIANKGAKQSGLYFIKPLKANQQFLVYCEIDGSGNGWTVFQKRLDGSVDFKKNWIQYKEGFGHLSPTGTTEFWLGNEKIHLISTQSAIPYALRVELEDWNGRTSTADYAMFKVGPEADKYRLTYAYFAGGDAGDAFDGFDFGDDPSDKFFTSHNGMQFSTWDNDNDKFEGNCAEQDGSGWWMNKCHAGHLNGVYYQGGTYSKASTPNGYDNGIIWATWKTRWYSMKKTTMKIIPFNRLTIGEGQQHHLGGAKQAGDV
Method: The absorption at 405 nm is immediately measured (base value) and exactly after 5 min, if the reaction is performed at room temperature (23° C.). If the reaction is performed at 37° C., the second value is measured after 2 min. A microtiterplate reader (Milenia, DPC, Los Angeles, USA) is used. The increase in absorption (ΔA) is determined and the results are standardized against a pooled plasma of known, preferably of 100% of norm, fibrinogen-activity (Table 1).
as §1, §2

[3] = test system: thrombin/fibrinogen interaction; assay: Inhibition of fibrin generation by arginine (FIFTA turbidity); details: for IC50: read-out: arginine conc. at halfmaximal turbidity increase
Method: The turbidity increase was calculated by subtracting the basal absorbance from the absorbance generated by thrombin (addition of 100 μl FIFTA-reagent without thrombin results into an approximate increase of absorbance of 100 mA compared to the absorbance of 50 μl sample). c) 50 μl P-Pool were incubated with 100 μl FIFTA-reagent.

[4] = target: T2, fibrin (Homo sapiens, UniProt P02671+P02675+P02679); assay: Fibrin dissolution by arginine
T2 construct: The FIFTA imitates the physiological conversion of fibrinogen to fibrin; from tissue; host or cells: pooled citrated patient plasma (P-Pool), clotted in the well with thrombin reagent for 30 min
T2 sequence (P02671 36-629 limits assumed): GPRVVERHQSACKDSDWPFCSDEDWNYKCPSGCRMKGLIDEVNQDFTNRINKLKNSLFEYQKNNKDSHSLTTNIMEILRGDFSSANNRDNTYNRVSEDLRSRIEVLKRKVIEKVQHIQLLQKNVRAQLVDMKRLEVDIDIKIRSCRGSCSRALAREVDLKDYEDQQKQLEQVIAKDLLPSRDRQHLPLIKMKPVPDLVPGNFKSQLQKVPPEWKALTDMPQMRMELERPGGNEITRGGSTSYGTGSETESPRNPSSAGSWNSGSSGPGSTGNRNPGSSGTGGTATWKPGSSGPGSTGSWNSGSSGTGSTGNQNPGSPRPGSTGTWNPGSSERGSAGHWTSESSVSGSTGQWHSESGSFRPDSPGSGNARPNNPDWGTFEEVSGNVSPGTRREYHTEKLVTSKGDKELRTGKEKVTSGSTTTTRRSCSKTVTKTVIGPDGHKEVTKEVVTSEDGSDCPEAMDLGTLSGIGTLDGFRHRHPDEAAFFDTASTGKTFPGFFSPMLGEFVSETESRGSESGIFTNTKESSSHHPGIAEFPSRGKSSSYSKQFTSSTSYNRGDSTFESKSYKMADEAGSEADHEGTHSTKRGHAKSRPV
T2 sequence (P02675 45-491 limits assumed): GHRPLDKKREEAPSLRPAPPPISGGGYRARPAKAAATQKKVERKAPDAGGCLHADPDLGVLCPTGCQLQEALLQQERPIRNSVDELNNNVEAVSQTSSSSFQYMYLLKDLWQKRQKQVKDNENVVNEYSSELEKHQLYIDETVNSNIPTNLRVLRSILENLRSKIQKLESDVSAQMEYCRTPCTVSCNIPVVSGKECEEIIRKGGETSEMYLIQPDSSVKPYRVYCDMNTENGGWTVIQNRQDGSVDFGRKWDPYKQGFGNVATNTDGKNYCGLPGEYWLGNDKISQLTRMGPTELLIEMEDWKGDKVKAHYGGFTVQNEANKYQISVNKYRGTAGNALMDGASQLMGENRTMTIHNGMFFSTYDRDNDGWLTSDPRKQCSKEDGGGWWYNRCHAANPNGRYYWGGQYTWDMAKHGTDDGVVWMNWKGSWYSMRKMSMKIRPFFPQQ
T2 sequence (P02679 27-437 isoform P02679-2 limits assumed): T1 sequence (P02679 27-437 isoform P02679-2 limits assumed)
Method: 50 μl P-Pool were incubated with 100 μl FIFTA-reagent.

[5] = test system: heparin; assay: Neutralization of heparin in plasma by Polybrene in the FIFTA
Method: P-Pool supplemented with 0-80 IU/ml heparin was analyzed in the FIFTA. The FIFTA-reagent contained 200 mIU/ml thrombin, 6% BSA-PBS and 0, 50, 100, 200, 400, 800, or 1600 μg/ml Polybrene® (PB, hexadimethrinebromide).
25 μl 0-75 mg/ml Polybrene® in aqua dest. were added to 50 μl P-Pool or to 50 μl P-Pool, that had been supplemented with 100 IU/ml heparin. Then 100 μl 200 miU/ml thrombin in 6% BSA-PBS, 400 μg/ml PB were added and the increase in absorbance at 405 nm was determined.
50 μl P-Pool with 0-80 IU/ml heparin were incubated with 100 μl FIFTA-reagent without thrombin, that contained 0, 400, 800, or 1600 μg/ml PB. The increase in absorbance at 405 nm was determined.

[6] = target: T3, thrombin (Bos taurus, UniProt P00735); assay: Inhibitory time point 50% (ITP50) of 10 IU/ml heparin-thrombin interaction; details: 133 mIU/ml thrombin, RT
T3 construct: 100 μl 200 mIU/ml thrombin in 6% BSA-PBS (without Polybrene®)
Method: 50 μl P-Pool were incubated with 100 μl 200 miU/ml thrombin in 6% BSA-PBS (without Polybrene®). At 0 min (prior to thrombin addition) and 0.5-11 min reaction time (at RT) 10 μl 160 IU/ml heparin in 6% BSA-PBS was added (final heparin conc. in plasma+thrombin reagent=10 IU/ml; this heparin conc. increased the absorbance by 20 mA; all test results were corrected by this heparin induced turbidity increase). The turbidity increase at 405 nm was determined immediately after each heparin addition step and as a function of incubation time.
To determine the heparin addition time point (at RT) that is needed to decrease the 5 min, 10 min, 15 min or 20 min turbidity increase by 50% (inhibitory time point 50%=ITP), 50 μl P-Pool were incubated with 100 μl 200 mIU/ml thrombin in 6% BSA-PBS (without Polybrene®). After 0 s (prior to thrombin addition) and 10-140 s (in 10 s intervals) 10 μl 160 IU/ml heparin in 6% BSA-PBS were added. The turbidity increase at 405 nm as a function of incubation time (3-20 min) was determined.

decrease of FIFTA activity ([2]; EDTA at concentrations >5 mmol/l, 0 mM or 2 mM oxidized samples): about 50%
FIFTA decrease ([2]; addition of 8.6 mM EDTA, independent of oxidant concentration): about 50%
Compound: O=C(O)CN(CCN(CC(=O)O)CC(=O)O)CC(=O)O [EDTA]
decrease of FIATA result [1]: 10-20%

Compound: N=C(N)NCCC[C@H](N)C(=O)O [arginine]
increase of the turbidity increase ([3]; 16 mM arginine): about 20%
final arginine conc. that completely inhibits turbidity increase ([3]; arginine acts in the first 4 min (RT) of thrombin/fibrinogen interaction): ≥ 250 mM
time window in which arginine can inhibit turbidity increase ([3]; final arginine conc. ≧250 mM, RT (FIG. 16d)): ≤ 3 min
IC50 ([3]; added at the 7 min reaction time point): 94 mM
IC50 ([3]; arginine acts since the begin of thrombin action): 62.5 mM
time to halfmaximal decrease of ΔA ([4]; 477 mM arginine added at 12 min or 30 min reaction time point, RT): 30 min
maximal ΔA that remains refractory to clearing ([4]; arginine incubation >100 min): about 30%

Compound: hexadimethrinebromide [Polybrene®]
plasmatic heparin concentration neutralized ([5]; 400 μg/ml Polybrene in FIFTA-reagent): up to 20 IU/ml
PB needed for neutralization of 1 part of 100 IU/ml heparinized plasma ([5]; 1 part PB, includes 400 μg/ml PB of FIFTA-reagent): 26 mg/mL
PB concentration that completely antagonizes 100 IU/ml heparin ([5]; 25 μl PB added to 50 μl plasma): ≥ 50 mg/mL

time in which about 50% of plasmatic fibrinogen is converted [6]: approximately 30 seconds
Compound: thrombin
